Assay results taken from PubChem BioAssay AID1745844 (Carcinogenic Potency Database (CPDB), 2022).
Activity calls are given as the source filed them. How the calls were made is not given here.

System: rodent lifetime carcinogenesis bioassay, tumor incidence TD50
Assay: chronic cancer bioassays in animals – CPDB, compiled studies (AID 1745844)

Q: For `O=P(OCC(Br)CBr)(OCC(Br)CBr)OCC(Br)CBr` (stereo not given), which TD50 (mouse, strain B6C3F1, females, in feed, site: any site (literature study), lesion: several types, types named in the paper, dosed 103 weeks, study length 104 weeks) is on record?
A: 148 mg/kg/day

Q: What about the TD50 (mouse, strain B6C3F1, females, in feed, site: liver + lung + stomach, lesion: hepatocellular adenoma + hepatocellular carcinoma + alveolar/bronchiolar adenoma + alveolar/bronchiolar carcinoma + squamous-cel, dosed 103 weeks, study length 104 weeks) of the same compound?
A: 80.1 mg/kg/day

Q: And the TD50 (mouse, strain B6C3F1, females, in feed, site: liver, lesion: hepatocellular adenoma + hepatocellular carcinoma + neoplastic nodule, dosed 103 weeks, study length 104 weeks)?
A: 95 mg/kg/day

Q: What about the TD50 (mouse, strain B6C3F1, females, in feed, site: liver, lesion: hepatocellular adenoma + hepatocellular carcinoma, dosed 103 weeks, study length 104 weeks) of the same compound?
A: 95 mg/kg/day

Q: And the TD50 (mouse, strain B6C3F1, females, in feed, site: liver, lesion: hepatocellular carcinoma, dosed 103 weeks, study length 104 weeks)?
A: 221 mg/kg/day

Q: And the TD50 (mouse, strain B6C3F1, females, in feed, site: lung, lesion: alveolar/bronchiolar adenoma + alveolar/bronchiolar carcinoma, dosed 103 weeks, study length 104 weeks)?
A: 225 mg/kg/day

Q: What about the TD50 (mouse, strain B6C3F1, females, in feed, site: stomach, lesion: squamous-cell carcinoma + squamous-cell papilloma, dosed 103 weeks, study length 104 weeks) of the same compound?
A: 127 mg/kg/day

Q: And the TD50 (mouse, strain B6C3F1, females, in feed, site: stomach, lesion: squamous-cell carcinoma, dosed 103 weeks, study length 104 weeks)?
A: 611 mg/kg/day

Q: And the TD50 (mouse, strain B6C3F1, females, in feed, site: uterus, lesion: endometrial stromal polyp, dosed 103 weeks, study length 104 weeks)?
A: 264 mg/kg/day

Q: What about the TD50 (mouse, strain B6C3F1, males, in feed, site: any site (literature study), lesion: several types, types named in the paper, dosed 103 weeks, study length 104 weeks) of the same compound?
A: 2220 mg/kg/day

Q: And the TD50 (mouse, strain B6C3F1, males, in feed, site: kidney + lung + stomach, lesion: tubular-cell adenoma + tubular-cell adenocarcinoma + alveolar/bronchiolar adenoma + alveolar/bronchiolar carcinoma + squamous-ce, dosed 103 weeks, study length 104 weeks)?
A: 103 mg/kg/day

Q: What about the TD50 (mouse, strain B6C3F1, males, in feed, site: kidney, lesion: tubular-cell adenocarcinoma, dosed 103 weeks, study length 104 weeks) of the same compound?
A: 822 mg/kg/day

Q: And the TD50 (mouse, strain B6C3F1, males, in feed, site: kidney, lesion: tubular-cell adenoma + tubular-cell adenocarcinoma, dosed 103 weeks, study length 104 weeks)?
A: 256 mg/kg/day

Q: And the TD50 (mouse, strain B6C3F1, males, in feed, site: liver, lesion: hepatocellular adenoma + hepatocellular carcinoma + neoplastic nodule, dosed 103 weeks, study length 104 weeks)?
A: 172 mg/kg/day

Q: What about the TD50 (mouse, strain B6C3F1, males, in feed, site: lung, lesion: alveolar/bronchiolar adenoma + alveolar/bronchiolar carcinoma, dosed 103 weeks, study length 104 weeks) of the same compound?
A: 211 mg/kg/day

Q: And the TD50 (mouse, strain B6C3F1, males, in feed, site: lung, lesion: alveolar/bronchiolar carcinoma, dosed 103 weeks, study length 104 weeks)?
A: 449 mg/kg/day

Q: What about the TD50 (mouse, strain B6C3F1, males, in feed, site: stomach, lesion: squamous-cell carcinoma + squamous-cell papilloma, dosed 103 weeks, study length 104 weeks) of the same compound?
A: 197 mg/kg/day

Q: What about the TD50 (rat, strain Fischer 344, females, in feed, site: any site (literature study), lesion: several types, types named in the paper, dosed 103 weeks, study length 104 weeks) of the same compound?
A: 23 mg/kg/day

Q: And the TD50 (rat, strain Fischer 344, females, in feed, site: kidney, lesion: tubular-cell adenoma, dosed 103 weeks, study length 104 weeks)?
A: 13.8 mg/kg/day

Q: And the TD50 (rat, strain Fischer 344, females, in feed, site: liver, lesion: hepatocellular adenoma + hepatocellular carcinoma + neoplastic nodule, dosed 103 weeks, study length 104 weeks)?
A: 2820 mg/kg/day

Q: What about the TD50 (rat, strain Fischer 344, females, in feed, site: ovary, lesion: Sertoli-cell tumor, dosed 103 weeks, study length 104 weeks) of the same compound?
A: 66.4 mg/kg/day

Q: What about the TD50 (rat, strain Fischer 344, males, by gavage, site: colon, lesion: polypoid adenoma, dosed 52 weeks, study length 52 weeks) of the same compound?
A: 13.4 mg/kg/day

Q: And the TD50 (rat, strain Fischer 344, males, by gavage, site: kidney, lesion: adenocarcinoma, dosed 52 weeks, study length 52 weeks)?
A: 54.8 mg/kg/day

Q: What about the TD50 (rat, strain Fischer 344, males, in feed, site: any site (literature study), lesion: several types, types named in the paper, dosed 103 weeks, study length 104 weeks) of the same compound?
A: 8.31 mg/kg/day

Q: And the TD50 (rat, strain Fischer 344, males, in feed, site: kidney, lesion: tubular-cell adenocarcinoma, dosed 103 weeks, study length 104 weeks)?
A: 63.3 mg/kg/day

Q: And the TD50 (rat, strain Fischer 344, males, in feed, site: kidney, lesion: tubular-cell adenoma + tubular-cell adenocarcinoma, dosed 103 weeks, study length 104 weeks)?
A: 1.57 mg/kg/day

Q: And the TD50 (rat, strain Fischer 344, males, in feed, site: kidney, lesion: tubular-cell adenoma, dosed 103 weeks, study length 104 weeks)?
A: 1.57 mg/kg/day

Q: And the TD50 (rat, strain Fischer 344, males, in feed, site: liver, lesion: hepatocellular adenoma + hepatocellular carcinoma + neoplastic nodule, dosed 103 weeks, study length 104 weeks)?
A: 34.3 mg/kg/day

Q: What about the TD50 (rat, strain Fischer 344, males, in feed, site: liver, lesion: hepatocellular carcinoma + neoplastic nodule, dosed 103 weeks, study length 104 weeks) of the same compound?
A: 34.3 mg/kg/day

Q: And the TD50 (rat, strain Fischer 344, males, in feed, site: preputial gland, lesion: adenocarcinoma, NOS + adenoma, NOS + carcinoma, NOS, dosed 103 weeks, study length 104 weeks)?
A: 20.3 mg/kg/day

Q: `O=NN1CCC1` was tested. Which TD50 (hamster, strain Syrian Golden, males, by gavage, site: any site (literature study), lesion: several types, types named in the paper, dosed 50 weeks, study length 85 weeks) did it give?
A: 8.83 mg/kg/day

Q: And the TD50 (hamster, strain Syrian Golden, males, by gavage, site: liver, lesion: hepatocellular adenoma, dosed 50 weeks, study length 85 weeks)?
A: 10.7 mg/kg/day

Q: What about the TD50 (hamster, strain Syrian Golden, males, by gavage, site: liver, lesion: several types, types named in the paper, dosed 50 weeks, study length 85 weeks) of the same compound?
A: 7.14 mg/kg/day

Q: Which TD50 (mouse, strain B6C3F1, males, in feed, site: liver, lesion: hepatocellular adenoma, dosed 52 weeks, study length 52 weeks) does the source give for `c1ccc2[nH]c(-c3cscn3)nc2c1` here?
A: 390 mg/kg/day (inactive)

Q: And the carcinogen call (mouse, strain Crj: CD-1 (ICR), females, in feed, site: liver, lesion: one or several types, types not named, dosed 78 weeks, study length 78 weeks)?
A: negative (inactive)

Q: What about the TD50 (mouse, strain Crj: CD-1 (ICR), females, in feed, site: lung, lesion: alveolar/bronchiolar adenoma, dosed 78 weeks, study length 78 weeks) of the same compound?
A: 4880 mg/kg/day (inactive)

Q: What about the carcinogen call (mouse, strain Crj: CD-1 (ICR), females, in feed, site: lung, lesion: alveolar/bronchiolar carcinoma, dosed 78 weeks, study length 78 weeks) of the same compound?
A: negative (inactive)

Q: What about the TD50 (mouse, strain Crj: CD-1 (ICR), females, in feed, site: urinary bladder, lesion: mesenchymal neoplasm, dosed 78 weeks, study length 78 weeks) of the same compound?
A: 16300 mg/kg/day (inactive)

Q: And the carcinogen call (mouse, strain Crj: CD-1 (ICR), males, in feed, site: liver, lesion: hepatocellular adenoma, dosed 78 weeks, study length 78 weeks)?
A: negative (inactive)

Q: And the carcinogen call (mouse, strain Crj: CD-1 (ICR), males, in feed, site: liver, lesion: hepatocellular carcinoma, dosed 78 weeks, study length 78 weeks)?
A: negative (inactive)

Q: What about the carcinogen call (mouse, strain Crj: CD-1 (ICR), males, in feed, site: lung, lesion: alveolar/bronchiolar adenoma, dosed 78 weeks, study length 78 weeks) of the same compound?
A: negative (inactive)

Q: What about the carcinogen call (mouse, strain Crj: CD-1 (ICR), males, in feed, site: lung, lesion: alveolar/bronchiolar carcinoma, dosed 78 weeks, study length 78 weeks) of the same compound?
A: negative (inactive)

Q: What about the TD50 (mouse, strain Crj: CD-1 (ICR), males, in feed, site: urinary bladder, lesion: transitional-cell papilloma, dosed 78 weeks, study length 78 weeks) of the same compound?
A: 15000 mg/kg/day (inactive)

Q: And the carcinogen call (rat, strain F344/DuCrj, females, in feed, site: kidney, lesion: transitional-cell carcinoma, dosed 104 weeks, study length 104 weeks)?
A: negative (inactive)

Q: And the carcinogen call (rat, strain F344/DuCrj, females, in feed, site: liver, lesion: one or several types, types not named, dosed 104 weeks, study length 104 weeks)?
A: negative (inactive)

Q: What about the TD50 (rat, strain F344/DuCrj, females, in feed, site: urinary bladder, lesion: transitional-cell papilloma, dosed 104 weeks, study length 104 weeks) of the same compound?
A: 7640 mg/kg/day (inactive)

Q: What about the TD50 (rat, strain F344/DuCrj, males, in feed, site: kidney, lesion: transitional-cell carcinoma, dosed 104 weeks, study length 104 weeks) of the same compound?
A: 3050 mg/kg/day (inactive)

Q: What about the carcinogen call (rat, strain F344/DuCrj, males, in feed, site: liver, lesion: one or several types, types not named, dosed 104 weeks, study length 104 weeks) of the same compound?
A: negative (inactive)

Q: And the TD50 (rat, strain F344/DuCrj, males, in feed, site: preputial gland, lesion: adenoma, dosed 104 weeks, study length 104 weeks)?
A: 571 mg/kg/day

Q: And the carcinogen call (rat, strain F344/DuCrj, males, in feed, site: urinary bladder, lesion: transitional-cell papilloma, dosed 104 weeks, study length 104 weeks)?
A: negative (inactive)

Q: For `O=S(=O)(O)c1ccc2c(N=Nc3ccc(S(=O)(=O)O)c4ccccc34)c(O)c(S(=O)(=O)O)cc2c1`, which TD50 (rat, strain Mongrel, both sexes, in feed, site: any site (literature study), lesion: several types, types named in the paper, dosed 108 weeks, study length 108 weeks) is on record?
A: 632 mg/kg/day

Q: And the TD50 (rat, strain Non-inbred, both sexes, in feed, site: any site (literature study), lesion: several types, types named in the paper, dosed 143 weeks, study length 143 weeks)?
A: 3320 mg/kg/day

Q: What about the TD50 (rat, strain Non-inbred, both sexes, in feed, site: liver, lesion: hepatoma, dosed 143 weeks, study length 143 weeks) of the same compound?
A: 49500 mg/kg/day

Q: What about the TD50 (rat, strain Not specified, females, in feed, site: any site (literature study), lesion: several types, types named in the paper, dosed 64 weeks, study length 64 weeks) of the same compound?
A: 1640 mg/kg/day (inactive)

Q: What about the carcinogen call (rat, strain Not specified, females, in feed, site: liver, lesion: one or several types, types not named, dosed 64 weeks, study length 64 weeks) of the same compound?
A: negative (inactive)

Q: What about the carcinogen call (rat, strain Not specified, males, in feed, site: any site (literature study), lesion: several types, types named in the paper, dosed 64 weeks, study length 64 weeks) of the same compound?
A: negative (inactive)

Q: And the carcinogen call (rat, strain Not specified, males, in feed, site: liver, lesion: one or several types, types not named, dosed 64 weeks, study length 64 weeks)?
A: negative (inactive)

Q: And the carcinogen call (rat, strain Sprague-Dawley, females, in feed, site: any site (literature study), lesion: one or several types, types not named, dosed 52 weeks, study length 52 weeks)?
A: negative (inactive)

Q: And the carcinogen call (rat, strain Sprague-Dawley, females, in feed, site: liver, lesion: one or several types, types not named, dosed 52 weeks, study length 52 weeks)?
A: negative (inactive)

Q: What about the TD50 (rat, strain Wistar, both sexes, in feed, site: abdomen, lesion: malignant lymphoma, dosed 91 weeks, study length 91 weeks) of the same compound?
A: 6130 mg/kg/day

Q: For `Cc1cc(C)nc(-c2ccc([N+](=O)[O-])o2)n1`, which carcinogen call (rat, strain Sprague-Dawley, females, in feed, site: forestomach, lesion: squamous-cell carcinoma, dosed 42 weeks, study length 59 weeks) is on record?
A: positive

Q: What about the TD50 (rat, strain Sprague-Dawley, females, in feed, site: intestine, lesion: hemangioendothelial sarcoma, dosed 42 weeks, study length 59 weeks) of the same compound?
A: 3.43 mg/kg/day

Q: What about the TD50 (rat, strain Sprague-Dawley, females, in feed, site: intestine, lesion: sarcoma, dosed 42 weeks, study length 59 weeks) of the same compound?
A: 2.61 mg/kg/day

Q: What about the TD50 (rat, strain Sprague-Dawley, females, in feed, site: kidney, lesion: transitional-cell carcinoma, dosed 42 weeks, study length 59 weeks) of the same compound?
A: 45.5 mg/kg/day

Q: And the TD50 (rat, strain Sprague-Dawley, females, in feed, site: mammary gland, lesion: adenocarcinoma, dosed 42 weeks, study length 59 weeks)?
A: 6.45 mg/kg/day
